# Active and inactive are the calls of the source. No cut-off for these calls is given here.
# Tests used:
# [1] = Protein binding in plasma (unknown origin); type: ADME, cell-free; settings: read-out: PPB (converted)
# Escherichia coli [2] = experiment: Antibacterial activity against Escherichia coli ATCC 25922 assessed as inhibition of bacterial growth at 0.6 mM incubated for 24 hrs by broth microdilution method; type: functional, organism-based
# Escherichia coli [3] = experiment: Antibacterial activity against Escherichia coli ATCC 25922 assessed as inhibition of bacterial growth incubated for 24 hrs in presence of HSA by broth microdilution method; type: functional
# Escherichia coli [4] = experiment: Antibacterial activity against Escherichia coli ATCC 25922 assessed as inhibition of bacterial growth incubated for 24 hrs in absence of HSA by broth microdilution method; type: functional
# Escherichia coli [5] = experiment: Ratio of MIC>90 against Escherichia coli ATCC 25922 in presence of HSA to MIC>90 against Escherichia coli ATCC 25922 in absence of HSA; type: functional
# Escherichia coli [6] = experiment: Antibacterial activity against Escherichia coli ATCC 25922 assessed as inhibition of bacterial growth at 0 to 8 ug/ml incubated for 24 hrs in presence of HSA by broth microdilution method; type: functional, organism-based; settings: dose 0-8 µg/ml
# Escherichia coli [7] = experiment: Antibacterial activity against Escherichia coli ATCC 25922 assessed as inhibition of bacterial growth incubated for 24 hrs in presence of warfarin by broth microdilution method; type: functional
# Albumin [8] = biological target: T1, Albumin (Homo sapiens, UniProt P02768); experiment: Binding affinity to human serum albumin incubated for 18 hrs in presence of 80 uM bicalutamide by equilibrium dialysis method; type: ADME; settings: isolated protein
# Albumin [9] = biological target: T1, Albumin; experiment: Binding affinity to human serum albumin incubated for 18 hrs by equilibrium dialysis method; type: ADME; settings: isolated protein
# Albumin [10] = biological target: T1, Albumin; experiment: Binding affinity to human serum albumin incubated for 18 hrs in presence of 40 uM bicalutamide by equilibrium dialysis method; type: ADME; settings: isolated protein
# T1 sequence (P02768 whole entry): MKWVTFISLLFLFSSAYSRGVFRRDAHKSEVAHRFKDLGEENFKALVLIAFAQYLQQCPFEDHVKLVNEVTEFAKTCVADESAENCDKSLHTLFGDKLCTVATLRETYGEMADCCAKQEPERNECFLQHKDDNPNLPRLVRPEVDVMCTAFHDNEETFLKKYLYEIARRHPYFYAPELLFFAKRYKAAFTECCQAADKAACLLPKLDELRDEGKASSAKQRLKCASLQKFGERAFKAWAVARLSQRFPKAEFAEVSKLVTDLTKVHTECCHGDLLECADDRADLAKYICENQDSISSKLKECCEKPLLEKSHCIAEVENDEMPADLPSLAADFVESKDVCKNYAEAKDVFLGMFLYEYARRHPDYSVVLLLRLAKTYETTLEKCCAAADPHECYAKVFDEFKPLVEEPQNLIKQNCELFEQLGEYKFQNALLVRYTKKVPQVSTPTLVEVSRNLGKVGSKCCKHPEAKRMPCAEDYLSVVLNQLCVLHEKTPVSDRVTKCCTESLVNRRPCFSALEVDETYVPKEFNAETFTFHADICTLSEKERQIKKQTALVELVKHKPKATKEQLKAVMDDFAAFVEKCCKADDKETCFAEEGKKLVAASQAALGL
SMILES,fraction unbound [1],other results
COCC1=C(C(=O)O)N2C(=O)[C@@H](NC(=O)/C(=N\OC)c3csc(N)n3)[C@H]2SC1 [CEFPODOXIME],0.17,–
CCCCC1C(=O)N(c2ccccc2)N(c2ccccc2)C1=O,–,Activity (Escherichia coli [2]): inactive
CC(O)(CS(=O)(=O)c1ccc(F)cc1)C(=O)Nc1ccc(C#N)c(C(F)(F)F)c1 (centres undefined),–,Activity (Escherichia coli [2]): inactive
CC(C)(O/N=C(\C(=O)N[C@@H]1C(=O)N2C(C(=O)[O-])=C(C[n+]3ccccc3)CS[C@H]12)c1csc(N)n1)C(=O)O [CEFTAZIDIME],0.91,–
Cc1nnc(SCC2=C(C(=O)O)N3C(=O)[C@@H](NC(=O)Cn4cnnn4)[C@H]3SC2)s1 [CEFAZOLIN],0.2,MIC90 (Escherichia coli [3]): 4 mg/L; MIC90 (Escherichia coli [4]): 2 mg/L; Ratio (Escherichia coli [5]): 2
CO/N=C(\C(=O)N[C@@H]1C(=O)N2C(C(=O)[O-])=C(C[N+]3(C)CCCC3)CS[C@H]12)c1csc(N)n1,0.8,–
CO/N=C(\C(=O)N[C@@H]1C(=O)N2C(C(=O)O)=C(/C=C\c3scnc3C)CS[C@H]12)c1csc(N)n1 [CEFDITOREN],0.12,–
CCO/N=C(\C(=O)N[C@@H]1C(=O)N2C(C(=O)[O-])=C(Sc3nc(-c4cc[n+](C)cc4)cs3)CS[C@H]12)c1nsc(N)n1 [CEFTAROLINE],0.8,–
CO/N=C(\C(=O)N[C@@H]1C(=O)N2C(C(=O)O)=C(COC(C)=O)CS[C@H]12)c1csc(N)n1 [CEFOTAXIME],0.5,–
CO[C@@]1(NC(=O)Cc2cccs2)C(=O)N2C(C(=O)O)=C(COC(N)=O)CS[C@@H]21 [CEFOXITIN],0.21,–
CC1=C(C(=O)O)N2C(=O)[C@@H](NC(=O)[C@H](N)c3ccc(O)cc3)[C@H]2SC1 [CEFADROXIL],0.8,–
CO/N=C(\C(=O)N[C@@H]1C(=O)N2C(C(=O)O)=CCS[C@H]12)c1csc(N)n1 [CEFTIZOXIME],0.7,–
CC=CC1=C(C(=O)O)N2C(=O)[C@@H](NC(=O)[C@H](N)c3ccc(O)cc3)[C@H]2SC1 [CEFPROZIL],0.64,–
Nc1nc(/C(=N/O)C(=O)N[C@@H]2C(=O)N3C(C(=O)O)=C(/C=C4\CCN([C@@H]5CCNC5)C4=O)CS[C@H]23)ns1 [CEFTOBIPROLE],0.84,–
C=CC1=C(C(=O)O)N2C(=O)[C@@H](NC(=O)/C(=N\OCC(=O)O)c3csc(N)n3)[C@H]2SC1 [CEFIXIME],0.35,–
CO/N=C(\C(=O)N[C@@H]1C(=O)N2C(C(=O)[O-])=C(C[n+]3cccc4c3CCC4)CS[C@H]12)c1csc(N)n1 [CEFPIROME],0.9,–
Nc1nc(/C(=C/CC(=O)O)C(=O)N[C@@H]2C(=O)N3C(C(=O)O)=CCS[C@H]23)cs1 [CEFTIBUTEN],0.35,–
CN1C(=O)CN=C(c2ccccc2)c2cc(Cl)ccc21,–,Activity (Escherichia coli [2]): inactive
CO[C@@]1(NC(=O)C2SC(=C(C(N)=O)C(=O)O)S2)C(=O)N2C(C(=O)O)=C(CSc3nnnn3C)CS[C@@H]21 (some centres undefined) [CEFOTETAN],0.12,Activity (Escherichia coli [6]): inactive
C=CC1=C(C(=O)O)N2C(=O)[C@@H](NC(=O)/C(=N\O)c3csc(N)n3)[C@H]2SC1,0.3,–
CO/N=C(\C(=O)N[C@@H]1C(=O)N2C(C(=O)O)=C(COC(N)=O)CS[C@H]12)c1ccco1 [CEFUROXIME],0.5,–
Cn1c(N)c(NC(=O)NCCN)c[n+]1CC1=C(C(=O)O)N2C(=O)[C@@H](NC(=O)/C(=N\OC(C)(C)C(=O)[O-])c3nsc(N)n3)[C@H]2SC1 [CEFTOLOZANE],0.8,–
N[C@@H](C(=O)N[C@@H]1C(=O)N2C(C(=O)O)=C(Cl)CS[C@H]12)c1ccccc1 [CEFACLOR ANHYDROUS],0.75,–
CO/N=C(\C(=O)N[C@@H]1C(=O)N2C(C(=O)O)=C(CSc3nc(=O)c(=O)[nH]n3C)CS[C@H]12)c1csc(N)n1 [CEFTRIAXONE],0.05,MIC90 (Escherichia coli [7]): 0.25 mg/L; K (Albumin [8]): 1.3 10^4/M; K (Albumin [9]): 8.5 10^4/M; MIC90 (Escherichia coli [3]): 1 mg/L; K (Albumin [10]): 5.01 10^4/M; MIC90 (Escherichia coli [4]): ≤ 0.12 mg/L
